What was measured:
Format in all cases: cell-based
Design in all cases: key: ○ corresponds to genes whose expression is significantly changed; x corresponds to genes whose expression is not changed
AhR = test: Microarray gene expression in keratinocytes UV-irradiated through wavelength conversion substance: AhR; settings: Normal Human Epidermal Keratinocytes; UV 100 mJ/cm^2 through substance solution without direct contact; 24 hours after irradiation; expression of AhR is reduced
Method: (§1) The wavelength conversion substances of (1) and (2) were dissolved in water to prepare solutions at concentrations of 1% and 5%.
(§2) The wavelength conversion substances of (3) and (4) were dispersed in alcohol to prepare 5% and 10% dispersions.
(§3) 1. Normal Human Epidermal Keratinocytes (PromoCell) were used. A cell suspension (1 mL) stored with liquid nitrogen was placed in a hot water bath (37° C.) and thawed until small ice pellets remained, and then diluted with 9 mL of warm KGM medium. 2. The diluted suspension was gently mixed and transferred to a T75 flask, and incubated overnight at 37° C. 3. On the following day, the medium was exchanged with 10 mL of fresh medium. 4. The medium was periodically exchanged (once every 2 to 3 days), while continuing growth of the cells. During this time, a microscope was used to observe the cells and to confirm that the cells had proliferated with the proper form. 5. Once the cells reached approximately 80% confluence, they were subcultured. 6. Subculturing of the cells was carried out by rinsing and aspirating once in 10 mL of warm PBS. 7. 5 mL of warm trypsin was added to the T75 flask to cover the bottom of the flask with the trypsin solution, and the mixture was aspirated after standing for 1 minute at room temperature. 8. The flask was set in an oven at 37° C. for 5 minutes (maximum) for keratinocytes. […]

AHRR = test: Microarray gene expression in keratinocytes UV-irradiated through wavelength conversion substance: AHRR; settings: Normal Human Epidermal Keratinocytes; UV 100 mJ/cm^2 through substance solution without direct contact; 24 hours after irradiation
Method: as §1, §2, §3

HMOX1 = test: Microarray gene expression in keratinocytes UV-irradiated through wavelength conversion substance: HMOX1; settings: Normal Human Epidermal Keratinocytes; UV 100 mJ/cm^2 through substance solution without direct contact; 24 hours after irradiation
Method: as §1, §2, §3

## Cc1cc2nc3c(=O)[nH]c(=O)nc-3n(C[C@H](O)[C@H](O)[C@H](O)CO)c2cc1C [Vitamin B2, Riboflavin]
AhR
  AhR gene expression change (microarray): ○
AHRR
  AHRR gene expression change (microarray): ○
HMOX1
  HMOX1 gene expression change (microarray): x

Reference: patent publication US20230050588A1, “ANTIOXIDANT OR SKIN STRESS INHIBITOR” (Shiseido Company, Ltd., priority 2020, published 2023)
